Experimental data as given in US10130710B2 (priority 2014, dated 2018).
Structures can show the parent of a compound that is named as a salt.

type: physicochemical; details: Log10(concentration in octanol phase/concentration in aqueous phase)
From the text: Incidentally, the octanol-water partition coefficient herein is obtained by adding a target component to be measured into a flask charged with n-octanol and an aqueous buffer of pH 7 or water, shaking the resultant, and performing calculation, in accordance with the following equation, based on active ingredient concentrations in respective phases. Octanol-water partition coefficient=Log10(concentration in octanol phase/concentration in aqueous phase)

SMILES | water-octanol partition coefficient
O.O.O.O.O.O=P([O-])(O)C(O)(Cc1cccnc1)P(=O)(O)O.O=P([O-])(O)C(O)(Cc1cccnc1)P(=O)(O)O.[Na+].[Na+] [risedronate monosodium hemipentahydrate, reference compound] | −5.0
CC(C)CCCCCC(=O)OCC(C)(C)COC(=O)CCCCCC(C)C [neopentyl glycol diisononanoate] | 7.2
CCCCCCCCCCCCCC(=O)OCC(CCCCCCCC)CCCCCCCCCC (centres unmarked) [octyldodecyl myristate] | 16.0
CCCc1nc(C)c2c(=O)[nH]c(-c3cc(S(=O)(=O)N4CCN(CC)CC4)ccc3OCC)nn12 [verdenafil hydrochloride hydrate, reference compound] | 0.0
CC12CC3CC(C)(C1)CC(N)(C3)C2 [memantine hydrochloride, reference compound] | 0.3
CCCCC(CC)C(=O)OCC(COC(=O)C(CC)CCCC)OC(=O)C(CC)CCCC (centres unmarked) [triethylhexanoin] | 8.9
CC(C)CCCCCCCCCCOC(=O)CCCCCC(C)C [isotridecyl isononanoate] | 9.2
CC(C)CCCCCCCOC(=O)C(C)(C)C [isodecyl neopentanoate] | 5.9
CC(C)CCCC(C)CCCC(C)CCCCC(C)CCCC(C)CCCC(C)C (centres unmarked) [squalane] | 14.7
CC(C)CCCCCCOC(=O)CCCCCC(C)C [isononyl isononanoate] | 6.5
CCCCCCCCCCCCCC(=O)OC(C)C [isopropyl myristate] | 7.2
